Assay results published in patent EP4782449A1, “TRICYCLIC PYRIDINE COMPOUND ACTING AS SARM1 ENZYME ACTIVITY INHIBITOR, AND USE THEREOF” (Artivila (ShenZhen) Innovation Center, Ltd., priority 2023, dated 2025).

Columns and labels:
[1] = tested on: dorsal root ganglion explants; experiment: Axonal Wallerian degeneration assay in mouse DRG explant culture; assay type: cell-based, C57BL/6 male mice; conditions: 10 µM test compound, 2 hours pretreatment, axons transected, images at 0 hour and 24 hours
Outline: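 Explants from 2-month-old male C57BL/6 mouse DRG were cultured 8 days in Neurobasal/B-27 with 10 ng/mL NGF. They were pretreated 2 h with 10 µM compound at 37°C, then axons were transected with a glass electrode. Axonal integrity was scored by script from bright-field images at 0 and 24 h.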

SARM1 = target: T1, SARM1 (Homo sapiens, UniProt Q6SZW1); experiment: In vitro biochemical assay for inhibiting SARM1 enzyme activity (PC6 fluorescence, NADase); conditions: full-length SARM1 from transfected HEK293 cells; 50 µM NAD, 50 µM PC6, 50 µM NMN activator; room temperature, 30 minutes; read-out: IC50
T1 construct: inventors produced full-length SARM1 for NAD enzyme activity experiments, and used it for screening; His (C); made in house; host or cells: HEK293 cells, transient transfection; supernatant of digitonin lysate, no further purification described
T1 sequence (Q6SZW1 28-724): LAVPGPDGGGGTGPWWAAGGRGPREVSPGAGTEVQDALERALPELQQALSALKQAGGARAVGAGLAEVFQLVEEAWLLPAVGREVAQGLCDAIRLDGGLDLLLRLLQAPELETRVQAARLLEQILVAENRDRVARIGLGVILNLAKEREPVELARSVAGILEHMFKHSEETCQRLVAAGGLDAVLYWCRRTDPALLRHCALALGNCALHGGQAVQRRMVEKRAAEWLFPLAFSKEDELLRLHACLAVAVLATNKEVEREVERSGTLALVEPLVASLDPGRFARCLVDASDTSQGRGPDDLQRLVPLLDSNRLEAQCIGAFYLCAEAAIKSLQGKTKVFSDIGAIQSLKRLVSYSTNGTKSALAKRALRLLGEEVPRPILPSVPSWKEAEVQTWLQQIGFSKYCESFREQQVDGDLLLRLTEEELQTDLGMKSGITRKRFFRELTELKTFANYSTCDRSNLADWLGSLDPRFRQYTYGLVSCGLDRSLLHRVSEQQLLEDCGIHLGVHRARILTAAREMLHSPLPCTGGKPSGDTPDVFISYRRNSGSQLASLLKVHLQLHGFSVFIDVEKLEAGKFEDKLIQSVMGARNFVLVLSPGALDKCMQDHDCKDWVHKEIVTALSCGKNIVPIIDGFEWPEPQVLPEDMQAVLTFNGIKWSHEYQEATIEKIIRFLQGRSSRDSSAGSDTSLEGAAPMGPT
Outline: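 Lysate supernatant from HEK293 cells transfected 48 hours with His-tagged SARM1 was obtained by 100 μM digitonin lysis and preincubated with inhibitor 10 minutes at room temperature.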

Row | Compound | Degree of Protection Against Axonal Wallerian Degeneration [1] | IC50 (SARM1)
1 | O=C(Nc1ccc2c(c1)COc1cnccc1-2)OCc1ccc(F)cc1 [Compound 135] | A (substantial protection (A) >50%) | 100 to 1000 nM
2 | O=C(CCc1ccccc1F)Nc1ccc2c(c1)COc1cnccc1-2 [Compound 136] | A (substantial protection (A) >50%) | < 100 nM
3 | O=C1C(Cc2ccc(F)cc2)CCCN1c1ccc2c(c1)COc1cnccc1-2 (stereo not shown) [Compound 137] | A (substantial protection (A) >50%) | 100 to 1000 nM
4 | O=C(CCc1cccs1)Nc1ccc2c(c1)COc1cnccc1-2 [Compound 138] | A (substantial protection (A) >50%) | < 100 nM
5 | [2H]C1(Cc2ccc(F)cc2)CCN(c2ccc3c(c2)COc2cnccc2-3)C1=O (stereo not shown) [Compound 139, 3-(4-fluorobenzyl)-1-(6H-isochromeno[3,4-c]pyridin-8-yl)pyrrolidin-2-one-3d] | A (substantial protection (A) >50%) | < 100 nM
6 | O=C(CCc1ccc(F)cc1)Nc1ccc2c(c1)COc1cncc(Cl)c1-2 [Compound 140] | B (partial protection (B): 20% to 50%) | 100 to 1000 nM
7 | O=C1C(Cc2ccc(F)cc2)CN1c1ccc2c(c1)COc1cnccc1-2 (stereo not shown) [Compound 142, 3-(4-fluorobenzyl)-1-(6H-isochromeno[3,4-c]pyridin-8-yl)azetidin-2-one] | A (substantial protection (A) >50%) | 100 to 1000 nM
8 | [2H]C1(Cc2ccc(F)cc2)CCN(c2ccc3c(c2)C([2H])([2H])Oc2cnccc2-3)C1=O (stereo not shown) [Compound 143, 3-(4-fluorobenzyl)-1-(6H-isochromeno[3,4-c]pyridin-8-yl-6,6-d2)pyrrolidin-2-one-3d] | A (substantial protection (A) >50%) | < 100 nM
9 | [2H]C1Oc2cnccc2-c2ccc(N3CCC(Cc4ccc(F)cc4)C3=O)cc21 (stereo not shown) [Compound 145, 3-(4-fluorobenzyl)-1-(6H-isochromeno[3,4-c]pyridin-8-yl-6-d)pyrrolidin-2-one] | A (substantial protection (A) >50%) | < 100 nM
10 | [2H]C1([2H])Oc2cnccc2-c2ccc(N3CCC(Cc4ccc(F)cc4)C3=O)cc21 (stereo not shown) [Compound 146, 3-(4-fluorobenzyl)-1-(6H-isochromeno[3,4-c]pyridin-8-yl-6,6-d2)pyrrolidin-2-one] | A (substantial protection (A) >50%) | < 100 nM
11 | CC1Oc2cnccc2-c2ccc(N3CCC(Cc4ccc(F)cc4)C3=O)cc21 (stereo not shown) [Compound 147, 3-(4-fluorobenzyl)-1-(6-methyl-6H-isochromeno[3,4-c]pyridin-8-yl)pyrrolidin-2-one] | A (substantial protection (A) >50%) | < 100 nM
